The values that follow come from patent publication US9227956B2 (Pfizer Inc., priority 2013, dated 2016).

For data set [1], the system named is human PCSK9. Description: Cell Free PCSK9 Assay (PCSK9-luciferase RNA translated in HeLa cell lysate). It counts as biochemical. The settings on record: 30° C. for 45 minutes, luciferase readout, top concentration 100 μM. Here is the method:
In order to eliminate the permeability barrier inherent to the WT7 and SCHH cell-based assays a cell-free system was also established to access compound activity. […] The construct was then in-vitro transcribed using the MEGAscript T7 Kit (Life Technologies) and RNA subsequently purified incorporating the MEGAclear Kit (Life Technologies) according to manufacturer's protocols. […] Growth was in a 50 L wavebag at a rocker speed of 25 rpm and angle 6.1 with 5% CO2 and 0.2 LPM flow rate with cells harvested at a density of 2-2.5e6/ml. Lysates additionally contained 1 tablet of Roche cOmplete-EDTA protease inhibitors per 50 ml with tris(2-carboxyethyl)phosphine (Biovectra) substituted for dithiothreitol, and were clarified by an additional final centrifugation at 10,000 rpm in a Sorvall SS34 rotor at 4° C. for 10 minutes. Compound screening was performed in 384-well plates in an eleven point, 0.5 log dilution format at a top test compound concentration of 100 μM in a final volume of 0.5% DMSO. […] Upon assay completion 1 μL from each reaction solution was removed and transferred to a second 384-well Optiplate (Perkin Elmer) containing 24 μL of SteadyGlo (Promega) and signal intensity was measured on the Envision (Perkin Elmer) using the enhanced luminescence protocol. […] The test compound data were converted into percent effect, using the ZPE and HPE controls as 0% and 100% activity, respectively, applying Equation 1 above. IC50 was then calculated and reported as the midpoint in the percent effect curve in molar units and the values are reported under the Cell Free PCSK9 IC50 (μM) column header within Table 1 Biological Data.

The test system of data set [2] is PCSK9. Briefly: PCSK9 lowering in sandwich culture human hepatocytes (SCHH). It counts as cell-based. The settings on record: maximum response versus vehicle. As for the experimental part:
Test compound in-vitro pharmacokinetic and pharmacodynamic relationships were measured in sandwich culture primary cryopreserved human hepatocytes. Within these studies SCHH cells (BD Biosciences IVT) were thawed at 37° C. then placed on ice, after which the cells were added to pre-warmed (37° C.) In VitroGRO-HT media and centrifuged at 50×g for 3 min. The cell pellet was re-suspended to 0.8×10^6 cells/mL in InVitroGRO-CP plating medium and cell viability determined by trypan blue exclusion. On day 1, hepatocyte suspensions were plated in BioCoat 96-well plates at a density of 80000 cells/well in a volume of 0.1 mL/well. After 18 to 24 hours of incubation at 37° C. in 5% CO2, cells were overlaid with ice-cold 0.25 mg/mL BD Matrigel Matrix Phenol Red-Free in incubation medium at 0.1 mL/well. Cultures were maintained at 37° C. in 5% CO2 in InVitroGRO-HI (FBS-free media), which was replaced every 24 hours and time course treatments were initiated on day 5. Prior to compound treatment cell plates were washed 3 times with 0.1 mL/well InVitroGRO-HI and 0.09 mL of media was added back in preparation for the compound additions. 1 uL of either DMSO or compound DMSO stocks at 30 mM, 10 mM, 3 mM and 1 mM were stamped into 96 well V bottom polypropylene plates. 0.099 mL of media was added to the compound plate and mixed thoroughly before the addition of 0.010 mL from the interim compound plate to the cell plate. […] At the indicated time, 0.08 mL of media was removed from the cell plates and frozen for subsequent analysis of secreted PCSK9 by AlphaLISA and for determination of drug levels in the media by liquid chromatography-tandem mass spectrometry (LC-MS/MS). The remaining media was then aspirated and the cell layers were washed 3× with ice cold Hanks Balanced Salt Solution (HBSS) under shaking conditions to remove the matrigel overlay and plates were then stored at −20° C. for subsequent determination of drug levels in the cells by LC-MS/MS. AlphaLISA determination of PCSK9 protein levels within the conditioned media was performed ultilizing the identical reagents and detection protocols described above for the WT7 cells.

Data set [3] deals with human PCSK9. Briefly: PCSK9 AlphaLISA assay, PCSK9 lowering in WT7 cells. The settings on record: WT7 cells (Huh7 stably over-expressing human PCSK9); secreted PCSK9 by AlphaLISA; overnight incubation (16-24 h); top concentration 20 μM; read-out: Cell Based PCSK9 IC50. An excerpt: An in-vitro AlphaLISA assay (Perkin Elmer) was developed in order to quantitate the level of PCSK9 secreted into the cell culture media following compound treatment. To detect and measure PCSK9 protein an in-house generated anti-PCSK9 antibody was coupled to AlphaLISA acceptor beads by an external vendor (PerkinElmer) and a second internally developed anti-PCSK9 antibody with an epiptope distinct from that of the acceptor beads was biotinylated in house. Streptavidin coated-donor beads (Perkin Elmer) are also included in the assay mixture which then binds the biotinylated anti-PCSK9 antibody and in the presence of PCSK9 this donor complex and acceptor beads are brought into close proximity. […] The ability of compound to modulate PCSK9 protein levels in conditioned media by AlphaLISA was assessed in the human hepatocellular carcinoma cell line Huh7, stably over-expressing human PCSK9. […] Following plasmid transfection the stable WT7 clone was identified and maintained under Zeocin selection. Compound screening was performed in 384-well plates where WT7 cells were plated at a density of 7500 cells per well in 20 μL of tissue culture media containing compound in an eleven point, 0.5 log dilution format at a high treatment concentration of 20 μM in a final volume of 0.5% DMSO. In additional to these test compound conditions each screening plate also included wells that contained 20 μM puromycin as a positive assay control defined as high percent effect, HPE, as well as wells containing media in 0.5% DMSO as a negative treatment control defined as zero percent effect, ZPE. After overnight compound incubation (16-24 h) the tissue culture media was collected and an aliquot from each sample was transferred to individual wells of a 384-well white Optiplate (Perkin Elmer). The coupled antibodies and donor beads were added to the assay plates in a buffer composed of 30 mM Tris pH 7.4, 0.02% Tween-20 and 0.02% Casein. Anti-PCSK9 acceptor beads (final concentration of 10 μg/mL) and anti-PCSK9 biotinylated antibody (final concentration of 3 nM) were added and incubated for 30 minutes at room temperature followed by the addition of the streptavidin donor beads (final concentration 40 μg/mL) for an additional 60 minutes. Additionally a standard curve was generated where AlphaLISA reagents were incubated in wells spiked with recombinant human PCSK9 diluted in tissue culture media from 5000 ng/mL to 0.6 ng/mL. […] The test compound data were converted into percent effect, using the ZPE and HPE controls as 0% and 100% activity, respectively. The equation used for converting each well reading into percent effect was:
[formula] IC50 was then calculated and reported as the midpoint in the percent effect curve in molar units and the values are reported under the Cell Based PCSK9 IC50 (μM) column header within Table 1 Biological Data. Additionally, to monitor the selectivity of compound response for PCSK9 the level of a second secreted protein, Transferrin, was measured from the same conditioned media treated with test compound by AlphaLISA. […] To detect and quantify effects on Transferrin 0.01 mL of the culture media was transferred to a 384-well white Optiplate and 0.01 mL of media was added to bring the volume to 0.02 ml. Anti-Transferrin acceptor beads were added to a final concentration of 10 μg/mL, biotinylated anti-Transferrin at 3 nM and streptavidin donor beads at 40 μg/mL. Percent effect and IC50 for Transferrin was computed in a similar manner as that described for PCSK9.
For orientation: In Alpha technology, singlet oxygen from a donor bead excites a nearby acceptor bead.

In the case of `CCC(OC(=O)C(C)C)n1nnc(-c2c(-c3ccc(C(=O)N(c4ncccc4C)[C@@H]4CCCNC4)cc3)cnn2C)n1` (single isomer, unassigned) [Example 52], the IC50 – broadly, the midpoint of a concentration-inhibition curve – in data set [1] was 10.7 µM; in data set [3], greater than 20 µM. Also, in data set [2] (at 6 h at 30 uM), the “Sandwich Culture Hepatocyte (SCHH) PCSK9 Lowering” value stood at 25% at 6 h at 30 uM.
In the case of `Cc1cccnc1N(C(=O)c1ccc(-c2cnn(C)c2-c2nnn(C(C)OC(=O)OC(C)C)n2)cc1)[C@@H]1CCCNC1` (single isomer, unassigned) [Example 39], the IC50 in data set [1] is 0.592 µM. In addition, the “Sandwich Culture Hepatocyte (SCHH) PCSK9 Lowering” value in data set [2] (at 6 h at 30 uM) is on record as 0% at 6 h at 30 uM.
In the case of `CCOC(=O)OC(CC)n1nnc(-c2c(-c3ccc(C(=O)N(c4ncccc4C)[C@@H]4CCCNC4)cc3)cnn2C)n1` (single isomer, unassigned) [Example 32], the results for the 50% inhibitory concentration (IC50) in data set [1] and in data set [3] were 7.26 µM and greater than 20 µM, respectively. Also, the “Sandwich Culture Hepatocyte (SCHH) PCSK9 Lowering” value in data set [2] (at 6 h at 30 uM) came out at 0% at 6 h at 30 uM.
Taken in the same sequence, the figures for `CCC(=O)OC(C(C)C)n1nnc(-c2c(-c3ccc(C(=O)N(c4ncccc4C)[C@@H]4CCCNC4)cc3)cnn2C)n1` (single isomer, unassigned) [Example 49] were 15.4 µM, greater than 20 µM and 0% at 6 h at 30 uM.
The matching figures for `CCC(=O)OC(C(C)C)n1nnc(-c2c(-c3ccc(C(=O)N(c4ncccc4C)[C@@H]4CCCNC4)cc3)cnn2C)n1` (single isomer, unassigned) [Example 48]: 7.68 µM, greater than 20 µM and 16% at 6 h at 30 uM.
As for `COC(=O)c1c(-c2ccc(C(=O)N(c3ncccc3Cl)[C@@H]3CCCNC3)cc2)cnn1C` [Example 10, Methyl 4-(4-{(3-chloropyridin-2-yl)[(3R)-piperidin-3-yl]carbamoyl}phenyl)-1-methyl-1H-pyrazole-5-carboxylate], the results for the IC50 in data set [1] and in data set [3] were 0.64 µM and 1.5 µM, respectively. For the same compound, the “Sandwich Culture Hepatocyte (SCHH) PCSK9 Lowering” value in data set [2] (at 8 h at 30 μM) is 87% at 8 h at 30 μM.
Take `CCC(=O)OC(C)n1nnc(-c2c(-c3ccc(C(=O)N(c4ncccc4C)[C@@H]4CCCNC4)cc3)cnn2C)n1` (single isomer, unassigned) [Example 44]: the IC50 in data set [1] was 4.39 µM; in data set [3], greater than 20 µM. The “Sandwich Culture Hepatocyte (SCHH) PCSK9 Lowering” value in data set [2] (at 6 h at 30 uM) came out at 12% at 6 h at 30 uM.
`Cc1cccnc1N(C(=O)c1ccc(-c2cnn(C)c2-c2nnn(C(OC(=O)C(C)C)C(C)C)n2)cc1)[C@@H]1CCCNC1` (single isomer, unassigned) [Example 54]: the IC50 was 12.8 µM in data set [1] and greater than 20 µM in data set [3]. In data set [2] (at 6 h at 30 uM), the “Sandwich Culture Hepatocyte (SCHH) PCSK9 Lowering” value came to 29% at 6 h at 30 uM.
For the compound `CCOC(=O)OC(C(C)C)n1nnc(-c2c(-c3ccc(C(=O)N(c4ncccc4C)[C@@H]4CCCNC4)cc3)cnn2C)n1` (single isomer, unassigned) [Example 35], the IC50 in data set [1] was 6.2 µM; in data set [3], greater than 20 µM. Besides, in data set [2] (at 6 h at 30 uM), the “Sandwich Culture Hepatocyte (SCHH) PCSK9 Lowering” value was 28% at 6 h at 30 uM.
Turning to `CCOC(=O)OC(C(C)C)n1nnc(-c2c(-c3ccc(C(=O)N(c4ncccc4C)[C@@H]4CCCNC4)cc3)cnn2C)n1` (single isomer, unassigned) [Example 34], the results for the half-maximal inhibitory concentration (IC50) in data set [1] and in data set [3] were 5.22 µM and greater than 20 µM, respectively. Also, the “Sandwich Culture Hepatocyte (SCHH) PCSK9 Lowering” value in data set [2] (at 6 h at 30 uM) was found to be 20% at 6 h at 30 uM.
Take `Cc1cccnc1N(C(=O)c1ccc(-c2cnn(C)c2-c2nnn(C(C)OC(=O)C(C)C)n2)cc1)[C@@H]1CCCNC1` (single isomer, unassigned) [Example 51]: the IC50 in data set [1] was 3.56 µM; in data set [3] it was greater than 20 µM. Also, the “Sandwich Culture Hepatocyte (SCHH) PCSK9 Lowering” value in data set [2] (at 6 h at 30 uM) is 48% at 6 h at 30 uM.
The matching figures for `CCC(=O)OC(C)n1nnc(-c2c(-c3ccc(C(=O)N(c4ncccc4C)[C@@H]4CCCNC4)cc3)cnn2C)n1` (single isomer, unassigned) [Example 45]: 25.1 µM, greater than 20 µM and 8% at 6 h at 30 uM.
For the compound `Cc1cccnc1N(C(=O)c1ccc(-c2cnn(C)c2-c2nnn(C(C)OC(=O)OC(C)C)n2)cc1)[C@@H]1CCCNC1` (single isomer, unassigned) [Example 38], in data set [1], the IC50 was 2.19 µM. Besides, the “Sandwich Culture Hepatocyte (SCHH) PCSK9 Lowering” value in data set [2] (at 6 h at 30 uM) is reported as 3% at 6 h at 30 uM.
As for `CCOC(=O)c1c(-c2ccc(C(=O)N(c3ncccc3Cl)[C@@H]3CCCNC3)cc2)cnn1C` [Example 6, ethyl 4-(4-{(3-chloropyridin-2-yl)[(3R)-piperidin-3-yl]carbamoyl}phenyl)-1-methyl-1H-pyrazole-5-carboxylate], the IC50 in data set [1] amounted to 1.7 µM. Moreover, the “Sandwich Culture Hepatocyte (SCHH) PCSK9 Lowering” value in data set [2] (at 8 h at 30 μM) is 80% at 8 h at 30 μM.
`CCOC(=O)OC(C)OC(=O)c1c(-c2ccc(C(=O)N(c3nccc4ccn(C)c34)[C@@H]3CCCNC3)cc2)cnn1C` (stereo partly drawn) [Example 14, 1-[(ethoxycarbonyl)oxy]ethyl 1-methyl-4-(4-{(1-methyl-1H-pyrrolo[2,3-c]pyridin-7-yl)[(3R)-piperidin-3-yl]carbamoyl}phenyl)-1H-pyrazole-5-carboxylate]: the “Sandwich Culture Hepatocyte (SCHH) PCSK9 Lowering” value in data set [2] (at 8 h at 30 μM) is recorded as 54% at 8 h at 30 μM. Besides, the half-maximal inhibitory concentration (IC50) in data set [3] amounted to 4.5 µM.
